The test system of one series is diverse tumor cell lines. Description: Proliferation of diverse tumor cell lines. It counts as cell-based.
Series [1] is described as follows: Phase 1 dose escalation study, safety. It counts as in vivo, human. Here is the method: (§1) A Phase 1 open label, dose escalation, safety, pharmacokinetics (PK), and pharmacodynamics (PD) study of PXD-101 was conducted in patients with advanced cancers.
(§2) PXD-101 was administered as a 30-minute intravenous (IV) infusion daily for 5-days every 3-weeks. In a subgroup of patients, PXD-101 was administered orally once, twice or thrice on day 1 only, in course 2 or 3. Acetylation of histones extracted from peripheral blood mononuclear cells (PBMNC) was measured by Western blotting. The PK/PD profile of intravenous and oral PXD-101 was evaluated.
The results of this study are as follows: 34 patients (median age 58 years, range 28-74; 19 male, all ECOG PS≤2) have been treated with a total of 103 cycles of PXD-101 (median 2; range 1 to 13) at 6 dose levels: 150 mg/m^2 (4 patients), 300 mg/m^2 (4 patients), 600 mg/m^2 (6 patients), 900 mg/m^2 (3 patients), 1000 mg/m^2 (12 patients) and 1200 mg/m^2 (5 patients).

Series [2] has as its system histone H4 acetylation in peripheral blood mononuclear cells. Nature of the series: Phase 1 study, pharmacodynamics: acetylation of histones from PBMNC by Western blotting. It counts as in vivo, human. The method, then:
as §2

In series [3] the test system is U266 multiple myeloma cell line. Description: CellTiter-Glo cell viability assay. The class given is cell-based. Conditions: Homo sapiens, U-266, 72 h, read-out: PXD-101 IC50. The method, then:
(§3) Percent activity (% activity), was calculated for each test compound as: % activity={(S^c−B)/(S^o−B)}×100
(§4) wherein S^c denotes signal measured in the presence of the compound being tested, S^o denotes signal measured in the absence of the compound being tested, and B denotes the background signal measured in blank wells containing medium only. The IC50 corresponds to the drug concentration which achieves 50% activity of untreated control cultures. IC50 values were calculated using the software package Prism 3.0 (GraphPad Software Inc., San Diego, Calif.) with variable slope option.
(§5) This example reports the effects of PXD-101 on six distinct multiple myeloma cell lines, three plasma cell leukemia cell lines and one plasmacytoma. The cells were incubated with PXD-101 for 72 hours in vitro, and their viability measured by the CellTiter-Glo assay.
A general note: ATP-based viability assays read luminescence as a measure of living cells.

The test system of series [4] is L-363 plasma cell leukemia cell line. Description: CellTiter-Glo cell viability assay. It counts as cell-based. Conditions: Homo sapiens, 72 h, read-out: PXD-101 IC50. Here is the method: as §3, §4, §5
Series [5] relates to SK-MM-2 plasma cell leukemia cell line. Description: CellTiter-Glo cell viability assay. The class given is cell-based. Conditions: Homo sapiens; SK-MM-2, plasma cell leukemia t(11;14)(q13;q32); 72 h; read-out: PXD-101 IC50. The method, then:
as §3, §4, §5

In series [6] the test system is KMS-12-BM multiple myeloma cell line. Nature of the series: CellTiter-Glo cell viability assay. The class given is cell-based. Conditions: Homo sapiens, MM t(11;14)(q13;q32), 72 h, read-out: PXD-101 IC50. Here is the method:
as §3, §4, §5

In series [7] the test system is LP-1 multiple myeloma cell line. Description: CellTiter-Glo cell viability assay. The class given is cell-based. Conditions: Homo sapiens, LP-1, MM t(4;14)(p16;q32), 72 h, read-out: PXD-101 IC50. The method, then:
as §3, §4, §5

Series [8] has as its system RPMI-8226 multiple myeloma cell line. Description: CellTiter-Glo cell viability assay. The class given is cell-based. Conditions: Homo sapiens, 72 h, read-out: PXD-101 IC50. The method, then: as §3, §4, §5
For series [9], the system named is AMO-1 plasmacytoma cell line. Description: CellTiter-Glo cell viability assay. It counts as cell-based. Conditions: Homo sapiens, AMO1, 72 h, read-out: PXD-101 IC50. The method, then:
as §3, §4, §5

Series [10] concerns OPM-2 multiple myeloma cell line. Description: CellTiter-Glo cell viability assay. Conditions: Homo sapiens; OPM-2, MM t(4;14)(p16;q32); 72 h; read-out: PXD-101 IC50. The class given is cell-based. Here is the method:
as §3, §4, §5

Series [11] concerns EJM multiple myeloma cell line. Description: CellTiter-Glo cell viability assay. It counts as cell-based. Conditions: Homo sapiens, 72 h, read-out: PXD-101 IC50. Here is the method: as §3, §4, §5
The subject of series [12] is KARPAS-620 plasma cell leukemia cell line. Description: CellTiter-Glo cell viability assay. It counts as cell-based. Conditions: KARPAS-620, plasma cell leukemia t(8;14)(q24;q32); 72 h; read-out: PXD-101 IC50. Here is the method:
as §3, §4, §5

Series [13] relates to six multiple myeloma cell lines, three plasma cell leukemia cell lines and one plasmacytoma. Description: CellTiter-Glo cell viability assay, all ten cell lines. Conditions: 72 h. The class given is cell-based. The method, then:
as §3, §4, §5

The nature of series [14]: Phase 1 dose escalation study, pharmacokinetics. It counts as in vivo, human. Conditions: for half-life / Cmax / bioavailability: human, in vivo. The method, then: as §1, §2
For another series, the system named is advanced cancers. Description: Phase 1 study, tumor reduction in patients with advanced cancers. It counts as in vivo, human. Conditions: a patient with epithelial mediastinal thymoma. Here is the method:
A Phase 1 open label, dose escalation, safety, pharmacokinetics (PK), and pharmacodynamics (PD) study of PXD-101 was conducted in patients with advanced cancers. PXD-101 was administered as a 30-minute intravenous (IV) infusion daily for 5-days every 3-weeks. In a subgroup of patients, PXD-101 was administered orally once, twice or thrice on day 1 only, in course 2 or 3. Acetylation of histones extracted from peripheral blood mononuclear cells (PBMNC) was measured by Western blotting. The PK/PD profile of intravenous and oral PXD-101 was evaluated.

Series [15] concerns A2780 ovarian cancer subcutaneous xenograft. Description: A2780 ovarian cancer subcutaneous xenograft model. It counts as in vivo. Conditions: AVASTIN 5 mg/kg on day 4, mice. The method, then: The object of this study was to investigate the tumour growth inhibitory effect of AVASTIN® (bevacizumab) in an A2780 ovarian cancer subcutaneous xenograft model. Mice were treated on day 4 with AVASTIN® (bevacizumab) (5 mg/kg). The chemosensitising effect of PXD-101 in combination with AVASTIN® (bevacizumab) was also investigated.

Where two headings read alike, the source gives them in different places.

A word on the IC50: it is the concentration that inhibits the measured activity by half. By Cmax is commonly meant the maximum level reached in the sampled fluid or tissue. What is called bioavailability is dose-corrected exposure relative to a reference, in per cent. On to `O=C(/C=C/c1cccc(S(=O)(=O)Nc2ccccc2)c1)NO` [PXD-101], for which the IC50 was 0.08 to 2.43 µM in the series with diverse tumor cell lines; 0.141 µM in series [3]; 0.1 µM in [4]; 0.028 µM in series [5]; 0.088 µM in series [6]; 0.045 µM in series [7]. Besides, the 50% inhibitory concentration (IC50) in [8] was determined as 0.196 µM; in [9], 0.029 µM; in series [10], 0.106 µM; in series [11], 0.123 µM; in series [12], 0.112 µM; in [13] (mean of ten cell lines, read-out: IC50, mean of the ten cell lines), 0.097 µM. Besides, the 50% inhibitory concentration (IC50) in [13] (ten cell lines, read-out: IC50, range over the ten cell lines) lay in the range of 0.028 to 0.196 µM. In addition, the “Patients with dose limiting toxicity” value in series [1] (both, human, in vivo, iv, 5 days every 3 weeks) was found to be 3 patients. In series [1] (in vivo), the “Most commonly reported other adverse events” value is “fatigue, nausea, vomiting, constipation, diarrhea and injection site reactions”. In [1] (in vivo, iv), the Dose limiting toxicity entry was “short-lived atrial fibrillation”. For the same molecule, the “Tolerability, in words” value is on record as “well tolerated” in series [1] (in vivo, iv) and “well tolerated” in [1] (in vivo, po). This molecule gave an MTD in [1] (once daily for 5-days 30-minute IV infusion) of 1000 mg/m^2. Besides, the “Duration of histone H4 hyperacetylation” value in series [2] (IV infusion, dose-dependent) lay within 4 to 24 h. In addition, in series [2] (oral 1000 mg/m^2), the “Duration of histone acetylation above baseline” value is 5 to 10 h. Further, the “Histone acetylation above baseline” value in [2] (oral 1000 mg/m^2) is 40-50%. The “Accumulation, oral” value in series [14] (8-hour interval dosing) is “tendency towards accumulation”; in [14] (12-hour interval dosing), “no accumulation”. In addition, the half-life in series [14] (intravenous, one patient outside the range, read-out: t1/2, one patient (converted)) is 1.8 h; in series [14] (iv, patients, IV infusion, read-out: Terminal elimination half-life), 0.5 to 1 h; in series [14] (po, 1000 mg/m2, b.i.d. 1000 mg/m^2 oral on a single day, 5 patients, read-out: t1/2), 1.5 to 2 h; in [14] (po, 1000 mg/m2, t.i.d. 1000 mg/m^2 oral on a single day, 2 patients, read-out: t1/2), 2 to 2.6 h. Also, the highest concentration (Cmax) in [14] (iv, reached at the end of the infusion) was in the range of 6500 to 55800 ng/mL; in series [14] (po, 1000 mg/m2, b.i.d. 1000 mg/m^2 oral on a single day, 5 patients), 1100 to 2900 ng/mL; in [14] (po, 1000 mg/m2, t.i.d. 1000 mg/m^2 oral on a single day, 2 patients), 1300 to 1800 ng/mL. For the same molecule, the bioavailability was found to be 42.8% in series [14] (po, 1000 mg/m2, b.i.d. 1000 mg/m^2 oral on a single day, 5 patients, SD 12.5%, read-out: Mean oral bioavailability) and 33% in series [14] (po, oral single dose, read-out: Mean single dose oral bioavailability). Moreover, in [14] (patients), the “Oral bioavailability, in words” value is “orally bioavailable”. Moreover, the “PK dose dependence, in words” value in [14] (patients, IV) is recorded as “dose-proportional”. Also, in [14] (repeated IV dosing), the “Accumulation on repeated IV dosing” value was “no drug accumulation”. In addition, the “Reduction of mediastinal disease” value in the series on advanced cancers was 70%. Besides, the “Time on the study” value in the series with advanced cancers is “over 1 year”.
Consider “AVASTIN® (bevacizumab): recombinant humanized antibody to Vascular Endothelial Growth Factor (VEGF)”, for which the “Tumour growth inhibition, in words” value in series [15] is “significant growth inhibition”.

These data come from patent US9980957B2, “Histone deacetylase (HDAC) inhibitors for the treatment of cancer” (TopoTarget UK Limited, priority 2005, dated 2018).
